Results on two compounds are retold here after patent publication US20150297534A1, “METHODS AND COMPOSITIONS FOR THE MEDIATION OF NSAID-INDUCED REACTIONS” (NuBioPharma, LLC, priority 2014, published 2015).

For data set [1], the system named is TNF-α. Put plainly: TNF-α in LPS-stimulated human whole blood (in vitro incubation). In kind it is cell-based. The following applies: whole human blood stimulated with LPS (FIG. 4). As for the experimental part: (§1) Determination of Inflammatory Cytokines (IL-1β & TNF-α) in Human Whole Blood: Blood from healthy adult volunteers was obtained in vacutainer blood collection tubes containing heparin as described above. Aliquots of whole blood (0.2 ml) were diluted with serum-free medium (RPMI-SF) in 24-well culture plates and volume was adjusted to 1 ml. The blood was incubated with the indicated compounds for 5 minutes at room temperature, and then stimulated with lipopolysaccharide (10 μg/ml) for 6 h at 37° C. with 5% CO2. Reaction was stopped on ice, the samples were centrifuged (2300 g, 10 mins., 4° C.), and of Inflammatory Cytokines IL-1β& TNF-α were estimated in the supernatant using High Sensitivity ELISA Kits according to the manufacturer's protocols (R&D Biosystems).

In the next data set the test system is IL-1β. The experiment in a line: IL-1β in LPS-stimulated human whole blood (in vitro incubation). It counts as cell-based. The following applies: whole human blood stimulated with LPS (FIG. 5); read-out: suppression of IL-1 beta, IC50. As for the experimental part:
as §1

The subject of data set [2] is PGE2 formation in human whole blood. The experiment in a line: PGE2 formation in LPS-stimulated human whole blood (in vitro incubation). It counts as cell-based. The following applies: LPS 10 µg/ml, 18 hours; for inhibition of PGE2 formation: alone or in combination; for inhibition of PGE2 compared with 6-keto PGF1α formation (FIG. 1): varied concentrations, compound alone. Here is the method: Determination of PGE2 and 6-keto PGF1α Formation in Human Whole Blood: Peripheral blood from healthy adult volunteers, who had not received any medication for at least 2 weeks under informed consent, was obtained by venipuncture and collected in a vacutainer blood collection tube containing heparin. Aliquots of whole blood (0.8 ml) were mixed with aspirin (50 μM) and volume was adjusted to 1 ml with PBS containing 6 mM glucose. The blood was incubated with the indicated compounds for 5 mins. at room temperature; and then stimulated with lipopolysaccharide (10 μg/ml) for 18 h at 37° C. Prostanoid formation was stopped on ice and the samples were centrifuged (2300 g, 10 min, 4° C.), and 6-keto PGF1α was quantified in the supernatant using High Sensitivity ELISA Kit for 6-keto PGF1α according to the manufacturer's protocols (Calbiochem). PGE2 was determined after solid-phase extraction, RP-HPLC and an ELISA according to the procedures of Koeberle et al. [J Pharmacol Exp Ther. 2008; 326(3):975-82].
Synergistic interaction between compounds was analyzed by the sensitization method (Harvey, R. J., J. Theor. Biol. 74: 411-437, 1978). Briefly, sensitization is measured as the ratio between observed and expected inhibition of PGE2. The expected level of activity (Ae) is calculated by Aβ=1−((1−A1)*(1−A2)) (^3) where A1 and A2 are the activities of drugs 1 and 2 alone at the concentration used in the combination (Harvey, R. J., J. Theor. Biol. 74: 411-437, 1978).

A further data set concerns 6-keto PGF1α. The experiment in a line: Healthy volunteer crossover study: 6-keto PGF1α production in LPS-stimulated blood after oral dosing. In kind it is in vivo, human. The following applies: single oral dose, blood 105 min after dosing, LPS stimulation, SE in parentheses. Here is the method: (§2) Peripheral blood from healthy adult volunteers, who had not received any medication for at least 2 weeks under informed consent, was obtained by venipuncture and collected in a vacutainer blood collection tube containing heparin. Aliquots of whole blood (0.8 ml) were mixed with aspirin (50 μM) and volume was adjusted to 1 ml with PBS containing 6 mM glucose. The blood was incubated with the indicated compounds for 5 mins. at room temperature; and then stimulated with lipopolysaccharide (10 μg/ml) for 18 h at 37° C. […] PGE2 was determined after solid-phase extraction, RP-HPLC and an ELISA according to the procedures of Koeberle et al. [J Pharmacol Exp Ther. 2008; 326(3):975-82]. […] A Blood sample (6 ml), immediately prior to dosing and at 105 minutes after dosing was obtained as described above. […] A blood sample (6 ml), immediately prior to dosing and at 105 min after dosing was obtained as described above.

A further data set concerns PGE2. Put plainly: Healthy volunteer crossover study: PGE2 production in LPS-stimulated blood after oral dosing. In kind it is in vivo, human. The following applies: LPS stimulation. Here is the method:
as §2, with “326(3):975-82]. Human Healthy Volunteer Clinical Study: Volunteers with acute or chronic diseases, medical history of gastrointestinal ulcers or allergy to NSAIDs were not included. Volunteers were not permitted to receive any NSAIDs for 2 weeks before and throughout the duration of the study. The study was conducted in an open-label, crossover design with a seven-day washout period between each treatment. […] Administration of the study medication was supervised by the investigator to ensure that the drug had been swallowed. […] An aliquot of blood was used for determination of PGE2 and TNF-α after LPS stimulation as described above.” for “326(3):975-82].”

A short description of data set [3]: Healthy volunteer study: total plasma concentration of ibuprofen by HPLC. In kind it is in vivo, human. The note with it: SE in parentheses; for concentration at 105 min: plasma. As for the experimental part:
Human Healthy Volunteer Clinical Study: Volunteers with acute or chronic diseases, medical history of gastrointestinal ulcers or allergy to NSAIDs were not included. Volunteers were not permitted to receive any NSAIDs for 2 weeks before and throughout the duration of the study. The study was conducted in an open-label, crossover design with a seven-day washout period between each treatment. Volunteer 1 was given a single oral dose of 400 mg of ibuprofen (Baby Advil Suspension) with 240 mL of water. […] A Blood sample (6 ml), obtained via an indwelling catheter inserted into an arm vein, and was collected into a tube containing heparin immediately prior to an ibuprofen dosing and at the following times thereafter: 65, 105, and 115 mins. after dosing. An aliquot of blood was used for determination of PGE2 and TNF-α after LPS stimulation as described above. Plasma was separated by centrifugation at 1000 g for 10 minutes at room temperature from the remaining blood for ibuprofen assay. After seven days (washout period), the same volunteer was given a single oral dose of 100 mg ibuprofen (Baby Advil Suspension) with 240 mL of water. A 6.0 mL blood sample for the determination of PGE2 and TNF-α after LPS stimulation and for the estimation of plasma levels of ibuprofen were drawn into tubes through an indwelling cannula before dosing and at 75, 125, and 155 mins. after dosing.
Total plasma concentrations of ibuprofen were determined by high-performance liquid chromatography (HPLC.) system that consisted of a Model 510 pump, a Model 486 variable wavelength UV detector and a computer loaded with the Millenium software, all from Waters Associates (Milford, Mas). To 100 μl of plasma was added 100 μl of internal standard solution (naproxen 10 μg/ml in 65% methanol and 1% acetic acid) followed by […]. Following vortex-mixing (30 s) and centrifugation (1000 g, 5 mins.), the supernatant was evaporated to dryness, and reconstituted in 100 μl of 65% methanol and 1% acetic acid immediately prior to injection onto a reversed phase column (ρBondaPak C18) eluted with methanol:1% acetic acid (65:35), pumped at 1.0 ml min. The column eluent was monitored at 210 nm. The height of the ibuprofen peak was divided by the height of the internal standard peak and this ratio was used to determine ibuprofen concentrations from a standard curve of ibuprofen.
A Blood sample (6 ml), immediately prior to dosing and at 105 minutes after dosing was obtained as described above. Production of PGE2, 6-keto PGF1α and TNF-α after LPS stimulation and plasma concentrations were determined as described above.
A blood sample (6 ml), immediately prior to dosing and at 105 min after dosing was obtained as described above. Production of PGE2, 6-keto PGF1α and TNF-α after LPS stimulation and plasma concentrations were determined as described above.

In data set [4] the test system is TNF-α. The experiment in a line: Healthy volunteer study: TNF-α in LPS-stimulated blood after ibuprofen dosing. The note with it: volunteer 1; single oral dose 400 mg ibuprofen; blood 65 minutes after dosing, LPS stimulation (FIG. 3). In kind it is in vivo, human. As for the experimental part:
as §1
Human Healthy Volunteer Clinical Study: Volunteers with acute or chronic diseases, medical history of gastrointestinal ulcers or allergy to NSAIDs were not included. Volunteers were not permitted to receive any NSAIDs for 2 weeks before and throughout the duration of the study. The study was conducted in an open-label, crossover design with a seven-day washout period between each treatment. Volunteer 1 was given a single oral dose of 400 mg of ibuprofen (Baby Advil Suspension) with 240 mL of water. Administration of the study medication was supervised by the investigator to ensure that the drug had been swallowed. […]

The next data set concerns gastric ulcers. The note with it: ibuprofen 2400 mg/day, daily use for 24 weeks, arthritis patients; cited from earlier work.
Setting [5] is: curcumin 10 µM, ibuprofen 20 µM.
The mark [6] stands for this setting: Human Volunteer 1, single oral dose, ibuprofen 50 mg (curcumin 200 mg, phosphatidylcholine 400 mg where included), 105 min after dosing.
Setting [7] is: Human Volunteer 2, single oral dose, ibuprofen 40 mg (curcumin 200 mg, phosphatidylcholine 400 mg where included), 105 min after dosing.

By IC50 is commonly meant the concentration at which inhibition is half-maximal. Turning to `COc1cc(/C=C/C(=O)CC(=O)/C=C/c2ccc(O)c(OC)c2)ccc1O` [Curcumin], the “suppression of ibuprofen-induced stimulation of TNF-α” value in the data set with TNF-α [1] (curcumin 10 µM co-incubated with ibuprofen 20 µM) is “suppressed the deleterious stimulation of TNF-α”. Also, the IC50 in the data set with IL-1β was determined as 14 µM. The “inhibition of PGE2 formation” value is on record as “did not inhibit PGE2 formation” in data set [2] (curcumin 3 µM, ibuprofen 4 µM) and “no detectable inhibition” in data set [2] (setting [5]). Moreover, the “inhibition of PGE2 compared with 6-keto PGF1α formation (FIG. 1)” value in data set [2] was “inhibited PGE2 more potently than 6-keto PGF1α”.

Turning to `CC(C)Cc1ccc(C(C)C(=O)O)cc1` (stereo not shown) [Ibuprofen], the “6-keto PGF1α (% inhibition)” value in the data set on 6-keto PGF1α (Human Volunteer 1, ibuprofen 50 mg (curcumin 200 mg, phosphatidylcholine 400 mg where included)) is listed as 61 (6) % inhibition; in the data set on 6-keto PGF1α (Human Volunteer 2, ibuprofen 40 mg (curcumin 200 mg, phosphatidylcholine 400 mg where included)), 35 % inhibition. The “stimulation of TNF-α” value in the data set with TNF-α [1] (ibuprofen 20 µM and 100 µM alone) was “dose-dependent stimulation of TNF-α”. Also, the “PGE2 (% inhibition)” value in the data set on PGE2 (Human Volunteer 1, single oral dose ibuprofen 100 mg, SE in parentheses) is given as 71 % inhibition; in the data set with PGE2 (Human Volunteer 1, single oral dose ibuprofen 400 mg, SE in parentheses), 88 (2) % inhibition; in the data set with PGE2 (Human Volunteer 1, single oral dose ibuprofen 400 mg, SE in parentheses, listed as ibuprofen), “about 90 % inhibition”; with PGE2 (Human Volunteer 1, single oral dose, ibuprofen 50 mg (curcumin 200 mg, phosphatidylcholine 400 mg where included), blood 105 min after dosing, SE of 3 measurements in parentheses) it was 56 (3) % inhibition; with PGE2 (Human Volunteer 2, single oral dose, ibuprofen 40 mg (curcumin 200 mg, phosphatidylcholine 400 mg where included), blood 105 min after dosing, SE in parentheses), 29 % inhibition. For the same compound, the “inhibition of PGE2 formation” value in data set [2] (curcumin 3 µM, ibuprofen 4 µM) is “did not inhibit PGE2 formation”; in data set [2] (setting [5]), 38%. Moreover, the “inhibition of PGE2 compared with 6-keto PGF1α formation (FIG. 1)” value in data set [2] is “inhibited the formation of both the prostanoids PGE2 and 6-keto PGF1α, to about the same extent”. Moreover, the “Plasma ibuprofen (ug/ml)” value in data set [3] (Human Volunteer 1, single oral dose ibuprofen 100 mg) is recorded as 3.0 (0.5) ug/ml; in data set [3] (Human Volunteer 1, single oral dose ibuprofen 400 mg) it was 44.0 (3.0) ug/ml; in data set [3] (setting [6]) it was 1.7 (0.15) ug/ml; in data set [3] (setting [7]), 0.42 (0.06) ug/ml. In data set [3] (Human Volunteer 1, single oral dose ibuprofen 100 mg, listed as ibuprofen), the “Plasma ibuprofen” value worked out at 3.0 µg/mL. Further, the concentration at 105 min amounted to 1700 ng/mL in data set [3] (setting [6]) and 420 ng/mL in data set [3] (setting [7]). Further, the “increase in TNF-α after ibuprofen dosing” value in the data set with TNF-α [4] is listed as 3.5 fold. Moreover, in the data set on gastric ulcers, the “incidence of gastric ulcers” value is 22.9%.
